Measurements published in patent US20220380371A1, “MLL1 INHIBITORS AND ANTI-CANCER AGENTS” (NOVARTIS AG, priority 2019, published 2022).
Read-outs that look alike come from different tables or passages of the source.

Columns and labels:
[1] = system: MV4-11 cells; assay: MV4-11 6-Day Cell Growth CTG (CellTiter-Glo) Assay; type: cell-based; settings: MV4-11 cell growth CellTiter-Glo, 6 days
Outline: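 MV4-11 AML cells (RPMI 1640, 10% FBS) seeded at 300 cells/well and exposed for 6 days at 37 °C to a 12-point, 1:3 compound series starting at 50 μM final. Viable cells read by CellTiter-Glo luminescence; percent inhibition versus DMSO-only wells fitted to dose-response curves for IC50.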

[2] = molecular target: wild type MLL1 five-member complex (MLL1-5C) (Homo sapiens, UniProt Q03164); assay: MLL1 Flashplate Assay; type: biochemical; settings: read-out: MLL1 flash plate
Method: MLL1 Flashplate Assay To assess the compound potency in MLL1 Flashplate assay, compounds were serially diluted 3-fold in DMSO to obtain a total of twelve concentrations. Then the test compounds at each concentration (250 nL of each) were transferred by Mosquito into Corning #3675 384-well plate. Solutions (15 μL) of 4.2 nM wild type MLL1 five-member complex (MLL1-5C) in the assay buffer (20 mM Tris-HCl, pH 8.0, 0.01% Tween 20, 1 mM DTT, 0.01% BSA) were added to the wells. A 10 μL solution of 2.5 μM of the peptide substrate H3K4me0 (histone H3[1-21]-Biotin) and 1.25 μM ^3H-SAM in the reaction buffer was then added to initiate each reaction. The final components in the reaction solution include 2.5 nM MLL1-5C, 0.5 μM ^3H-SAM, and 1 μM H3K4me0 with varying concentration of the compounds. A positive control consisted of 2.5 nM MLL1-5C, 0.5 μM ^3H-SAM, and 1 μM substrate in the absence of the test compound, and a negative control consisted of 0.5 μM ^3H-SAM, and 1 μM substrate only. Each reaction was incubated at rt for 90 min, then stopped by addition of 5 μL per of quench solution (0.5 mM SAM in assay buffer). 25 μL of each reaction solution was transferred to FlashPlate streptavidin 384-well microplate (PerkinElmer). After at least 1 h incubation at rt, the wells were washed three times with 0.1% Tween-20 in dH2O using the BioTek plate washer. The plates were then read in MicroBeta (PerkinElmer). The radioactive readouts were then normalized based on the values coming from the positive and negative controls to give percent enzyme activities. The data were then fit to a dose response equation using the program Helios to get the IC50 values of the test compounds.

[3] = system: H3K4me3 in MV4-11 cells; assay: MV4-11 H3K4me3 Cellular ELISA Assay; type: cell-based
Outline: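 MV4-11 cells were treated for 48 h with 12-point 1:3 compound dilutions (from 10 mM stock), then histones were acid-extracted with 0.5M HCl and neutralized. H3K4me3 and total H3 were measured by HRP chemiluminescent ELISA, and inhibition versus DMSO after H3 normalization was curve-fitted for IC50.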

[4] = molecular target: wild type MLL1 four-member complex (MLL1-4C) (Homo sapiens, UniProt Q03164); assay: MLL1 LC-MS Assay; type: biochemical
Outline: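 Compound pre-incubated 20 min with MLL1-4C and SAM, then H3[1-21]-biotin (H3K4me0) substrate added; final 30 nM enzyme, 2.5 μM SAM, 10 μM peptide in Tris pH 8.0 with MgCl2, DTT, Tween 20, BSA. After 120 min at rt, TFA-quenched SAH quantified by LC-MS/MS with d4-SAH; IC50 from dose-response fit.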

Row | SMILES | IC50 [1] [µM] | IC50 [2] [µM] | IC50 ([3]; 48 hours) [µM] | IC50 ([4]; read-out: LCMS) [µM] | IC50 ([1]; Homo sapiens, MV4-11, 144 h) [µM] | IC50 ([3]; Homo sapiens, MV4-11, 48 h) [µM] | IC50 ([4]; read-out: MLL1 LCMS) [µM]
1 | Nc1ncnc2c1ncn2Cc1c(Br)cc(Cl)cc1N1CC[C@](N)(CO)C1 (stereo in doubt) [Example 107] | < 2 | > 0.1 | > 3 | > 0.1 | – | – | –
2 | Nc1ncnc2c1ncn2Cc1c(Br)cc(Cl)cc1N1CC[C@](N)(C(=O)NC2CC2)C1 [Example 1, (R)-3-amino-1-(2-((6-amino-9H-purin-9-yl)methyl)-3-bromo-5-chlorophenyl)-N-cyclopropylpyrrolidine-3-carboxamide] | – | < 0.06 | – | < 0.05 | 2 to 3 | < 1.9 | –
3 | CCc1cc(Cl)cc(N2CC[C@](N)(C(=O)NC3CC3)C2)c1Cn1cnc2c(N)ncnc21 [Example 2, (R)-3-amino-1-(2-((6-amino-9H-purin-9-yl)methyl)-5-chloro-3-ethylphenyl)-N-cyclopropylpyrrolidine-3-carboxamide] | – | < 0.06 | – | < 0.05 | < 2 | < 1.9 | –
4 | Nc1ncnc2c1ncn2Cc1c(-c2ccc3c(c2)CCO3)cc(Cl)cc1N1CC[C@](N)(C(=O)NC2CC2)C1 [Example 3] | – | > 0.1 | – | > 0.1 | > 3 | > 3 | –
5 | N#Cc1c(F)ccc(N2CC[C@](N)(C(=O)NC3CC3)C2)c1Cn1cnc2c(N)ncnc21 [Example 4] | – | > 0.1 | – | > 0.1 | > 3 | 1.9 to 3 | –
6 | Nc1ncnc2c1ncn2Cc1cc(F)ccc1N1CC[C@](N)(C(=O)NC2CC2)C1 [Example 14] | – | > 0.1 | – | > 0.1 | 2 to 3 | < 1.9 | –
7 | Nc1ncnc2c1ncn2Cc1c(N2CC[C@](N)(C(=O)NC3CC3)C2)ccc2c1OC(F)(F)O2 [Example 15] | – | < 0.06 | – | < 0.05 | < 2 | < 1.9 | –
8 | NC(=O)[C@@]1(N)CCN(c2cc(Cl)cc(-c3cccc(C4CCCCC4)c3)c2Cn2cnc3c(N)ncnc32)C1 [Example 16] | – | > 0.1 | – | > 0.1 | < 2 | < 1.9 | –
9 | C=CC(=O)N1CCN(C(=O)[C@@]2(N)CCN(c3ccc(F)c(CC)c3Cn3cnc4c(N)ncnc43)C2)CC1 [Example 17] | – | < 0.06 | – | < 0.05 | < 2 | < 1.9 | –
10 | Nc1ncnc2c1ncn2Cc1c(Br)cc(Cl)cc1N1CC[C@](N)(c2nc[nH]n2)C1 [Example 18, (R)-9-(2-(3-amino-3-(1H-1,2,4-triazol-3-yl)pyrrolidin-1-yl)-6-bromo-4-chlorobenzyl)-9H-purin-6-amine] | – | < 0.06 | – | < 0.05 | < 2 | < 1.9 | –
11 | Nc1ncnc2c1ncn2Cc1c(Br)cc(Cl)cc1N1CC[C@](N)(CO)C1 [Example 19] | – | < 0.06 | – | 0.05 to 0.1 | 2 to 3 | < 1.9 | –
12 | Nc1ncnc2c1ncn2Cc1c(Br)c(F)c2c(c1N1CC[C@](N)(C(=O)NC3CC3)C1)OCC2 [Example 20] | – | < 0.06 | – | < 0.05 | < 2 | < 1.9 | –
13 | Nc1ncnc2c1ncn2Cc1c(N2CC[C@](N)(CCc3ccccn3)C2)ccc(F)c1C(F)(F)F [Example 28] | – | > 0.1 | – | > 0.1 | – | > 3 | –
14 | CN(C)Cc1c(F)cc(Cl)c(N2CC[C@](N)(C(=O)NC3CC3)C2)c1Cn1cnc2c(N)ncnc21 [Example 72, (R)-3-amino-1-(2-((6-amino-9H-purin-9-yl)methyl)-6-chloro-3-((dimethylamino)methyl)-4-fluorophenyl)-N-cyclopropylpyrrolidine-3-carboxamide] | – | > 0.1 | – | > 0.1 | – | > 3 | –
15 | Nc1ncnc2c1ncn2Cc1c(CN2CCOCC2)c(F)cc(Cl)c1N1CC[C@](N)(C(=O)NC2CC2)C1 [Example 75] | – | > 0.1 | – | 0.05 to 0.1 | – | > 3 | –
16 | Cn1nnnc1[C@@]1(N)CCN(c2cc(Cl)cc(Br)c2Cn2cnc3c(N)ncnc32)C1 [Example 90, (R)-9-(2-(3-amino-3-(1-methyl-1H-tetrazol-5-yl)pyrrolidin-1-yl)-6-bromo-4-chlorobenzyl)-9H-purin-6-amine] | – | > 0.1 | – | < 0.05 | – | > 3 | –
17 | CC1(C)Cc2ccc(N3CC[C@](N)(C(=O)NC4CC4)C3)c(Cn3cnc4c(N)ncnc43)c2O1 [Example 114] | – | > 0.1 | – | > 0.1 | – | > 3 | –
18 | Nc1ncnc2c1ncn2Cc1c(Br)cc2c(c1N1CCC(N)(C(=O)NC3CC3)C1)CCO2 (stereo not drawn) [Example 115] | – | < 0.06 | – | 0.05 to 0.1 | – | > 3 | –

Row | SMILES | IC50 [1] [µM] | IC50 [2] [µM] | IC50 ([3]; 48 hours) [µM] | IC50 ([4]; read-out: LCMS) [µM] | IC50 ([1]; Homo sapiens, MV4-11, 144 h) [µM] | IC50 ([3]; Homo sapiens, MV4-11, 48 h) [µM] | IC50 ([4]; read-out: MLL1 LCMS) [µM]
19 | C[C@@H](NC(=O)[C@@]1(N)CCN(c2ccc(F)c(C(F)(F)F)c2Cn2cnc3c(N)ncnc32)C1)C1CCOCC1 [Example 124] | – | – | – | 0.05 to 0.1 | < 2 | < 1.9 | –
20 | Nc1ncnc2c1ncn2Cc1c(N2CC[C@](N)(C(=O)NC3CC34CCOCC4)C2)ccc(F)c1C(F)(F)F (stereo partly drawn) [Example 126] | – | – | – | 0.05 to 0.1 | < 2 | < 1.9 | –
21 | Nc1ncnc2c1ncn2Cc1c(N2CC[C@](N)(C(=O)NC3CCOC3)C2)ccc(F)c1C(F)(F)F (stereo partly drawn) [Example 129] | – | – | – | < 0.05 | < 2 | < 1.9 | –
22 | COC1CC2(C1)CC2NC(=O)[C@@]1(N)CCN(c2ccc(F)c(C(F)(F)F)c2Cn2cnc3c(N)ncnc32)C1 (stereo partly drawn) [Example 130] | – | – | – | < 0.05 | < 2 | < 1.9 | –
23 | Nc1ncnc2c1ncn2Cc1c(N2CC[C@](N)(C(=O)N3CCn4nccc4C3)C2)ccc(F)c1C(F)(F)F [Example 137] | – | – | – | 0.05 to 0.1 | 2 to 3 | < 1.9 | –
24 | CCCNC(=O)CCNC(=O)[C@@]1(N)CCN(c2ccc(F)c(C(F)(F)F)c2Cn2cnc3c(N)ncnc32)C1 [Example 139] | – | – | – | 0.05 to 0.1 | < 2 | < 1.9 | –
25 | Nc1ncnc2c1ncn2Cc1c(N2CC[C@](N)(c3nnn[nH]3)C2)ccc(Cl)c1I [Example 156] | – | – | – | – | < 2 | < 1.9 | 0.05 to 0.1
26 | Nc1ncnc2c1ncn2Cc1c(N2CC[C@](N)(C(=O)NC3CC3)C2)ccc(F)c1C1CCCC1 [Example 158] | – | – | – | – | < 2 | < 1.9 | < 0.05
27 | [2H]C([2H])([2H])C([2H])([2H])NC(=O)[C@@]1(N)CCN(c2cc(Cl)cc(Br)c2Cn2cnc3c(N)ncnc32)C1 [Example 159] | – | – | – | – | 2 to 3 | < 1.9 | < 0.05
28 | Nc1ncnc2c1ncn2Cc1c(N2CCC(N)(C(=O)NC3CC3)C2)ccc(C(F)(F)F)c1Cl (stereo not drawn) [Example 160] | – | – | – | – | < 2 | < 1.9 | 0.05 to 0.1
29 | CCc1cc(Cl)cc(N2CC[C@](N)(C(=O)NC(C)C)C2)c1Cn1cnc2c(N)ncnc21 [Example 161] | – | – | – | – | < 2 | < 1.9 | < 0.05
30 | COCc1c(Cl)cc(Cl)c(N2CC[C@](N)(C(=O)NC3CC3)C2)c1Cn1cnc2c(N)ncnc21 [Example 162] | – | – | – | – | 2 to 3 | < 1.9 | 0.05 to 0.1
31 | C=Cc1c(Cl)ccc(N2CC[C@](N)(C(=O)NC3CC3)C2)c1Cn1cnc2c(N)ncnc21 [Example 163] | – | – | – | – | < 2 | < 1.9 | < 0.05
32 | Nc1ncnc2c1ncn2Cc1c(Cl)cccc1N1CCC(N)(C(=O)NC2CC2)C1 (stereo not drawn) [Example 164] | – | – | – | – | < 2 | < 1.9 | 0.05 to 0.1
33 | CCc1c(Cl)ccc(N2CC[C@](N)(C(=O)NC3CC3)C2)c1Cn1cnc2c(N)ncnc21 [Example 165] | – | – | – | – | < 2 | < 1.9 | 0.05 to 0.1
34 | COc1ccc(N2CC[C@](N)(C(=O)NC3CC3)C2)c(Cn2cnc3c(N)ncnc32)c1Br [Example 168] | – | – | – | – | < 2 | < 1.9 | 0.05 to 0.1
35 | CCc1cccc(N2CC[C@](N)(C(=O)NC3CCCC3)C2)c1Cn1cnc2c(N)ncnc21 [Example 169] | – | – | – | – | < 2 | < 1.9 | 0.05 to 0.1
